Data reported in paper PMC4184574, “Enantioselectivity in the cytochrome P450-dependent conversion of tegafur to 5-fluorouracil in human liver microsomes” (Pharmacology Research & Perspectives, 2013).

Legend:
[1] = 5-FU formation from FT enantiomers in human hepatic microsomes (kinetic analysis, formation rate); type: in vitro ADME; settings: for Km / Vmax: monophasic kinetics
Procedure: (§1) (pooled preparations from 20 donors; Kansas City, KS). […] Insect microsomes expressing only NADPH-P450 oxidoreductase and cytochrome b5 were also used as control. These enzymes were stored at −80°C until use.
(§2) 5-FU formed from FT was subjected to extensive metabolism by dihydropyrimidine dehydrogenase (DPD) contaminating human hepatic preparations. Therefore, a potent DPD inhibitor, CDHP, was always added to avoid the unexpected loss of 5-FU (Ikeda et al. [2000]; Yamamiya et al. [2010]). Incubation mixture for hepatic microsomal metabolism contained FT, microsomes (1 mg protein/mL), 0.1 mmol/L CDHP, and an NADPH-generating system consisting of 1.3 mmol/L β-NADP^+, 3.3 mmol/L glucose-6-phosphate, 3.3 mmol/L magnesium chloride, and 0.4 units glucose-6-phosphate dehydrogenase in 100 mmol/L Tris (pH 7.4). Metabolic reaction by S9 and cytosol (each 2 mg protein/mL) was carried out in 100 mmol/L phosphate (pH 7.4) because TPase requires phosphate ions for catalyzing the reaction. In some cases, insect microsomes expressing recombinant CYP isoforms (20 pmol/mL) were added to the incubation mixtures in either 50, 100 mmol/L phosphate (pH 7.4) or 100 mmol/L Tris (pH 7.4), depending on supplier's recommendation. […] The reaction for the assay of FT metabolism was initiated by adding the substrate, following preincubation for 5 min at 37°C. […] The incubation times of microsomes, cytosol, and S9 were 15, 15, and 30 min, respectively. After centrifugation, the supernatant was collected and stored at −80°C until the determination of 5-FU. Because a small portion of FT is nonenzymatically converted to 5-FU, the content of 5-FU spontaneously formed was subtracted from total yield obtained after incubation to correct the activity. The spontaneous degradation of FT to 5-FU was evaluated using enzymes inactivated by heating them at 100°C for 5 min.
(§3) Concentration of 5-FU was determined using a LC/MS/MS system. […] The mobile phase consisted of 10 mmol/L ammonium acetate/acetonitrile 10:90 (v/v). The MS/MS analysis was performed in negative ionization mode under multiple reaction monitoring (MRM) mode, using mass transitions, m/z 128.6/41.8 for 5-FU and m/z 130.6/42.8 for ^15N2-5-FU, an internal standard (IS). […] For quantification of 5-FU, the calibration curves were linear over the range 2–1000 ng/mL.
(§4) In determining kinetic parameters, FT concentration ranged from 0.03 to 10 mmol/L. All reactions were performed in a linear range of 5-FU formation with respect to protein or CYP concentrations and incubation time. Eadie–Hofstee plot analysis was used to characterize enzyme kinetics in which kinetic parameters were estimated by fitting the data to the following equations (1) or (2): [drawing 1] (1) [drawing 2] (2) where V is 5-FU formation rate, S is FT concentration in the incubation mixture, Km1 and Km2 are affinity constants for high- and low-affinity components, respectively, and Vmax1 and Vmax2 are maximum velocities for high- and low-affinity components, respectively.

CYP2E1 = molecular target: T1, CYP2E1 (Homo sapiens, UniProt P05181); experiment: 5-FU formation from FT enantiomers by cDNA-expressed CYP2E1 (kinetics, velocity, RAF contribution); type: in vitro ADME
T1 construct: purchased BD Gentest; host or cells: insect cells (baculovirus)
Procedure: as §1, §2, §3, §4
(§5) The contribution of CYPn to the metabolism of R- and S-FT at their concentration of 30 μmol/L was subsequently calculated using equation (4). [drawing 4] (4) VCYPn = 5-FU formation rate in cDNA-expressed CYPn.

[2] = design: method as in Damle et al. [2001]; settings: ref Damle et al. [2001], cited from earlier work
CYP1A2 = molecular target: T2, CYP1A2 (Homo sapiens, UniProt P05177); experiment: 5-FU formation from FT enantiomers by cDNA-expressed CYP1A2 (kinetics, velocity, RAF contribution); type: in vitro ADME
T2 construct: purchased BD Gentest; host or cells: insect cells (baculovirus)
T2 sequence (P05177 2-516 limits assumed): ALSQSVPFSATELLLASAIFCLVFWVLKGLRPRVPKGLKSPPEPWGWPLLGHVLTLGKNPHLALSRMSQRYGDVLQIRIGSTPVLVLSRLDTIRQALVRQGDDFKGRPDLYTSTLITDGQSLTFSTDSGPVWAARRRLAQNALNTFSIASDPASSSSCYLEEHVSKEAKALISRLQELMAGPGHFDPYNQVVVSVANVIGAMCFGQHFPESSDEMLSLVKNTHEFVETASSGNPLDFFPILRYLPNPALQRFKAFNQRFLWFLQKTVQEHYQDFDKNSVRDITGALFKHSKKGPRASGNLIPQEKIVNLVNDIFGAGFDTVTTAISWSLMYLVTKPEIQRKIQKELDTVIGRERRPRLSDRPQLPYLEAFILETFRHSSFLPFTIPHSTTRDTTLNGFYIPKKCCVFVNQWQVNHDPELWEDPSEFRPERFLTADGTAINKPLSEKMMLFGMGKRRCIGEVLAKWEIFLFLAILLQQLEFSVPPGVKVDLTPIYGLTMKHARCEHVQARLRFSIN
Procedure: as §1, §2, §3, §4, §5

CYP2C19 = molecular target: T3, CYP2C19 (Homo sapiens, UniProt P33261); experiment: 5-FU formation from FT enantiomers by cDNA-expressed CYP2C19 (kinetics, velocity, RAF contribution); type: in vitro ADME
T3 construct: purchased BD Gentest; host or cells: insect cells (baculovirus)
Procedure: as §1, §2, §3, §4, §5

[3] = cancer patients orally given FT

T1 sequence (P05181 whole entry): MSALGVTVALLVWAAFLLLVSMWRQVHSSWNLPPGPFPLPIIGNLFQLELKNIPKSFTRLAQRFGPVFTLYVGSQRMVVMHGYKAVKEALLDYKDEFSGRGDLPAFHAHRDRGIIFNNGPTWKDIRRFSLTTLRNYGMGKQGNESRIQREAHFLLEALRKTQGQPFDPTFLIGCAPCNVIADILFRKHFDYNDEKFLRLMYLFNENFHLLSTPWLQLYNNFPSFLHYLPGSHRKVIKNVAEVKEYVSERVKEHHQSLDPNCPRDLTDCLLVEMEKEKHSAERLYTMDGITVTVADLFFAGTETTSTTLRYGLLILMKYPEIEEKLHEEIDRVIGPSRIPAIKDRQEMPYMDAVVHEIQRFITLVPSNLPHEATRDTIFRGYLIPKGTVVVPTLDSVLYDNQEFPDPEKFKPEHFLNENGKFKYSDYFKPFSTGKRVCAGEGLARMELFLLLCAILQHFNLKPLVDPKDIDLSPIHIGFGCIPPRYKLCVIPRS
T3 sequence (P33261 whole entry): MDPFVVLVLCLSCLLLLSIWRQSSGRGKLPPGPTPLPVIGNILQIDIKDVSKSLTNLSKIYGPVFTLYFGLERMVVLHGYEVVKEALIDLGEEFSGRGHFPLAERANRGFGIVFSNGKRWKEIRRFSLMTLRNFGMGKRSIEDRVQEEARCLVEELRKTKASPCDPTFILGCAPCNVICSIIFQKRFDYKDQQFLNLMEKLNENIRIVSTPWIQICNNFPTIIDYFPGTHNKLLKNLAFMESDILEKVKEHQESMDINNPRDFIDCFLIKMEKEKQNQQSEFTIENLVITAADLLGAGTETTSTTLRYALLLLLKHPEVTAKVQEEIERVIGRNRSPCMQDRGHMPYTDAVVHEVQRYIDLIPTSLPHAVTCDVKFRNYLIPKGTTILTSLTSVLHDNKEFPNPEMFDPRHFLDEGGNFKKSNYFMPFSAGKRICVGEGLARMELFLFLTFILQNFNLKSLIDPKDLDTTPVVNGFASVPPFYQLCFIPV

Work on `O=c1[nH]c(=O)n([C@@H]2CCCO2)cc1F` [S-FT] yielded a Km ([1]; Mean ± SD of five human livers) of 1600 ± 600 µM, a Vmax ([1]; Mean ± SD of five human livers) of 1021 ± 692 pmol/min/mg and a CLint ([1]; Mean ± SD of five human livers, total (for R-FT sum of high- and low-affinity components)) of 0.73 ± 0.53 µL/min/mg. It also gave a Km ([1]; microsomes HG32) of 1400 µM, a Vmax ([1]; microsomes HG32) of 468 pmol/min/mg and a CLint ([1]; microsomes HG32, total (for R-FT sum of high- and low-affinity components)) of 0.34 µL/min/mg. For the same molecule, the Km ([1]; microsomes HH31) was 1400 µM, the Vmax ([1]; microsomes HH31) was 2205 pmol/min/mg and the CLint ([1]; microsomes HH31, total (for R-FT sum of high- and low-affinity components)) was 1.6 µL/min/mg. The Km ([1]; microsomes HH74) was 2600 µM, the Vmax ([1]; microsomes HH74) was 583 pmol/min/mg and the CLint ([1]; microsomes HH74, total (for R-FT sum of high- and low-affinity components)) was 0.23 µL/min/mg. The Km ([1]; microsomes HH81) was 1100 µM, the Vmax ([1]; microsomes HH81) was 915 pmol/min/mg and the CLint ([1]; microsomes HH81, total) was 0.81 µL/min/mg. The Km ([1]; microsomes HH94) was 1300 µM, the Vmax ([1]; microsomes HH94) was 936 pmol/min/mg and the CLint ([1]; microsomes HH94, total (for R-FT sum of high- and low-affinity components)) was 0.71 µL/min/mg. It also gave a CYP contribution (CYP2E1; CYP2E1, RAF method, 30 μmol/L) of 7.0%, a CLint (CYP2E1; cDNA-expressed CYP2E1) of 1.3 nL min^−1 pmol^−1 CYP and a Km (CYP2E1; cDNA-expressed CYP2E1) of 3700 ± 200 µM. The Vmax (CYP2E1; cDNA-expressed CYP2E1) was 4.7 ± 0.2 pmol min^−1 pmol^−1 CYP, the “maximum concentration (Cmax)” value ([2]; cancer patients after oral administration of UFT) was 3788 ng/mL and the Cmax ([2]; cancer patients after oral administration of UFT, read-out: maximum concentration (Cmax)) was 18.9 µM. The “area under the plasma concentration–time curve” value [2, 3] was 49,300 ng h/mL, the plasma elimination half-life [2, 3] was 10.3 h and the CYP contribution (CYP1A2; CYP1A2, RAF method, 30 μmol/L) was 4.4%. It also gave a Km (CYP1A2; cDNA-expressed CYP1A2) of over 10000 µM, a CYP contribution (CYP2C19; CYP2C19, RAF method, 30 μmol/L) of 3.9% and a CLint (CYP2C19; cDNA-expressed CYP2C19) of 0.90 nL min^−1 pmol^−1 CYP. The Km (CYP2C19; cDNA-expressed CYP2C19) was 6200 ± 300 µM and the Vmax (CYP2C19; cDNA-expressed CYP2C19) was 5.5 ± 0.2 pmol min^−1 pmol^−1 CYP.
